Results published in PMC3568987 (ACS medicinal chemistry letters, 2012).

Columns and labels:
rat hepatocytes = assay: Hepatocyte intrinsic clearance; format: in vitro ADME
human hepatocytes = assay: Hepatocyte intrinsic clearance; format: in vitro ADME

intrinsic clearance (rat hepatocytes): 4.9 μL.min^−1 ·10^6 cells | intrinsic clearance (human hepatocytes): 2.7 μL.min^−1 ·10^6 cells
Structure (SMILES): CC#Cc1cncc(-c2cc(Cl)c([C@]3(C)CC(=O)N(C)C(=N)N3)s2)c1 [Compound 16]
